Row | melting point | Compound
1 | 178 °C | C=C(C)C(=O)NC1=CC(O)(C(C)=O)C(C(=O)O)C=C1 (stereo not given)
2 | 277 °C | CCc1[nH]n(-c2c(Cl)cc(C(=O)O)cc2Cl)c2nc(Cc3ccc(OC)cc3)nc(=O)c1-2
3 | 193 to 194 °C | Cc1cc(-c2ccc(-c3ccco3)cc2)n(-c2ccc(S(C)(=O)=O)cc2)c1
4 | 259 to 262 °C | Nc1nc2c(s1)C(=O)CCC2
5 | 135 to 137 °C | NC(=S)NCCSCc1c[nH]cn1
6 | 33 to 35 °C | CCCC(=O)COS(=O)(=O)c1ccc(C)cc1
7 | 149 to 151 °C | CC1=Cc2cc(Br)ccc2S1(=O)=O
8 | 173 to 175 °C | CC1CC(n2ccc(-c3ccc(F)cc3)c2-c2ccncc2)CCN1 (stereo not given)
9 | 28 to 30 °C | CC(Cl)CCC(=O)c1ccccc1 (stereo not given)
10 | 110 to 113 °C | Cc1cc2c(cc1[N+](=O)[O-])C(=O)CC(C)O2 (stereo not given)
11 | 136 °C | CC(C)CNc1nc2cc(Cl)c(Cl)cc2n1[C@H]1O[C@@H](CO)[C@H](O)[C@@H]1O
12 | 163 to 165 °C | O=C(NC1=NN(c2ccccc2)CC1)C(F)(F)F
13 | 137 °C | Cc1c(-c2cc(N(C)C)ncn2)ssc1=S
14 | 142 to 146 °C | CCCCOCCOc1ccc(-c2ccc3c(c2)C=C(C(=O)OC)CCN3c2ccc(S(=O)(=O)NC)cc2)cc1
15 | 210 to 213 °C | N#Cc1cnc2c(sc3ccc([N+](=O)[O-])cc32)c1Nc1ccc(Cl)cc1Cl
16 | 119 to 120 °C | COc1ccc(-n2c(Cl)ccc2-c2ccc(S(N)(=O)=O)cc2)cc1
17 | 128 to 132 °C | COCCOCc1nc2cnc3ccc(OCc4ccccc4)cc3c2n1C
18 | 298 to 300 °C | Cc1cc(C(=O)Nc2cc(-c3c(-c4ccc(F)c(C)c4)nc4cccnn34)ccn2)cc(Cl)n1
19 | 146 °C | O=c1ncc(Cl)cn1COc1ccccc1
20 | 73 to 74 °C | COc1cc2c(cc1OCc1ccccc1)CCN(Cc1ccccn1)C2
21 | 168 to 170 °C | CN1Cc2ccccc2C(=O)c2cc(CC(=O)O)cc(Cl)c21
22 | 158 to 160 °C | CNc1cc(Br)nc(S(=O)(=O)c2ccc(N)cc2)c1
23 | 96 to 97 °C | CCOC(=O)[C@H](CO)NC(=O)[C@H](CC(=O)OCc1ccccc1)NC(=O)OC(C)(C)C

Row | melting point | Compound
24 | 113 to 114 °C | CN(C)C(=N)Nc1ccccc1-c1cccc(S(C)(=O)=O)c1
25 | 195 to 197 °C | Cc1cc(C2CN(C(=O)Nc3ccc(OC(F)(F)F)cc3)N=C2c2ccccc2)on1 (stereo not given)
26 | 194 °C | Cc1cc2cc(CN3CCCC3)cnc2cc1NC(=O)c1ccc(-c2ccc3ccccc3c2)cc1
27 | 211 to 213 °C | CS(=O)(=O)c1ccc(-c2cnn(-c3ccc(F)c(F)c3)c(=O)c2C#Cc2ccccc2)cc1
28 | 86 to 87 °C | COCCCc1nc(C(F)F)ccc1C(=O)O
29 | 161 to 162 °C | COC(=O)[C@]1(OS(C)(=O)=O)C[C@H](CC(C)C)[C@@H](O)[C@H](OC(=O)c2ccccc2)C1
30 | 266 to 269 °C | COc1cc2ncnc(N3CCN(C(=O)Nc4ccc(S(C)(=O)=O)cc4)CC3)c2cc1OC
31 | 144 to 146 °C | O=[N+]([O-])c1ccc(S(=O)(=O)c2ncc(Cl)cn2)s1
32 | 159 to 162 °C | CC(C)(C)NC(=O)c1nn(-c2ccc(Cl)cc2)c2c1[C@@H]1CC[C@H]2C1
33 | 108 to 110 °C | Cc1cc(C=O)c(C)c(Br)c1C
34 | 42 to 43 °C | COC(=O)C(=O)c1ccc(OCCCc2ccc(F)cc2)cc1
35 | 147 to 149 °C | CC(C)(C)OC(=O)N1CCc2cc(N)c(N)cc2CC1
36 | 320 to 340 °C | Cc1c(-c2ccc(Cl)cc2F)sc2nc(N)[nH]c(=O)c12
37 | 162 °C | CC(C)(C)OC(=O)N1CCn2c(c(C(N)=O)c(Br)c2C2CC2)C1
38 | 178 to 181 °C | CCCOc1ccc(CCCOc2ccc3c(c2)C=C(C(=O)Nc2ccc(CN(C)C4CCOCC4)cc2)CCS3(=O)=O)cc1
39 | 174 to 175 °C | CCOC(=O)c1ccc(C(=O)Nc2ccc3c(c2)N(C)C(=O)CCC3(C)C)cc1
40 | 267 to 270 °C | COc1cccc2c1nc(C(F)F)n2-c1nc(Nc2ccc(N)nc2)nc(N2CCOCC2)n1
41 | 134 to 136 °C | CCCCOc1cc(CCC(=O)O)ccc1-c1cccc(N(C)C(=O)Nc2ccccc2)c1
42 | 223 to 224 °C | CC1(C)OC(=O)Nc2ccc(-c3cccc(-c4nccs4)c3)cc21
43 | 156 to 158 °C | Cc1ccc2occ(C3CCN(CCc4cc5c(s4)CCCC(=O)N5)CC3)c2c1
44 | 107 to 109 °C | COc1cc(OC)c2c(=O)[nH]c(-c3cc(C)cc(OCCO)c3)nc2c1
45 | 63 to 64 °C | NS(=O)(=O)Oc1ccccc1F
46 | 94.5 to 97 °C | COc1cc(Br)ccc1-c1ccc(Br)cc1N

Row | melting point | Compound
47 | 248 to 249 °C | Cn1cc(S(C)=O)c(=O)c2ccc(Br)cc21 (stereo not given)
48 | 152 to 154 °C | CCCNC(=O)C1CC(=O)N(c2cc(C(F)(F)F)cc(C(F)(F)F)c2)C1 (stereo not given)
49 | > 310 °C | O=C(O)c1cc2cc([N+](=O)[O-])ccc2[nH]c1=O
50 | 138 °C | c1ccc(COc2ccc(-c3ccc(OCCCN4CCCCC4)cc3)nn2)cc1
51 | 215 to 218 °C | CCc1c(Oc2c(Cl)cc(C(F)(F)F)cc2Cl)n[nH]c1C
52 | 204 °C | Cc1ccc(-c2c(NS(=O)(=O)c3cccc4ccccc34)ncnc2OCCOc2ncc(Br)cn2)cc1
53 | 86 to 88 °C | COc1cc(OC)cc(N2CCN(C(=O)N(C)c3cc(C)c(C)cc3OC)CC2)c1
54 | 109 °C | C=CCCC(C#N)(C#N)Cc1ccc(C#N)cc1
55 | 251 to 252 °C | Cn1cc(C(N)=O)c(-c2ccc([N+](=O)[O-])o2)n1
56 | 114 to 117 °C | CC(=O)NC1C(Oc2ncn(Cc3ccc([N+](=O)[O-])cc3)c2C(N)=O)OC(COC(C)=O)C(OC(C)=O)C1OC(C)=O (stereo not given)
57 | 171 to 174 °C | COc1nc(NC(=O)NS(=O)(=O)c2ccccc2C(=O)OCCCl)nc(OC)n1
58 | 256 °C | Cc1c(Nc2c(C#N)cnc3sc(C(=O)N4CCCC4)cc23)ccc2[nH]ccc12
59 | 77 to 79 °C | CCCCCCCCCCCCCCCCCNC(=O)OCC(CO)Oc1cc(C)on1 (stereo not given)
60 | 229 to 230 °C | Cc1ccc(CC(=O)N[C@H]2C[C@H](C(=O)O)Nc3cc(Cl)cc(Cl)c32)cc1 (relative stereo)
61 | 111 to 112 °C | O=C(CCC1CCN(Cc2cccc(F)c2)CC1)c1cc2c3c(c1)CCN3C(=O)CC2
62 | 233 to 235 °C | O=C1N=CC(OCc2ccccn2)(C(F)(F)F)c2cc(Cl)ccc2N1 (stereo not given)
63 | 262 to 265 °C | O=c1[nH]c2c(Cc3nnn[nH]3)c3ccccc3n2c2ccccc12
64 | 228 to 230 °C | O=C1NCCN1c1ccc(S(=O)(=O)Nc2ccc3c(c2)CCC3)cc1
65 | 280 °C | O=C(NC(=O)c1ccc([N+](=O)[O-])cc1Cl)Nc1ccc(Cl)c(Cl)c1
66 | 104 to 106 °C | N#CSc1cc(-c2ccccc2)c(O)c(-c2ccccc2)c1
67 | 133 to 135 °C | CCc1cc2c(-c3ccccc3Cl)c(NC(=O)C=Cc3cc(OC)c(OC(C)=O)c(OC)c3)cnc2s1

Row | Compound | melting point
68 | CC(=O)NC(NC(=O)CC(=O)OCc1ccccc1)C(=O)NCc1ccccc1 (stereo not given) | 177 to 179 °C
69 | CC1(C)CCC(C)(C)c2c(CO)cc(-c3ccccc3)cc21 | 80 to 82 °C
70 | Fc1ccc2c(C3=CCN(CCC4OCCc5cc(Br)ccc54)CC3)c[nH]c2c1 (stereo not given) | 184 to 186 °C

Source: a melting point compilation (Tetko et al.; mined from patent text by program, amines drawn as free bases though some values may be those of a salt)
